Source: PubChem BioAssay (NCI)
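96-well plates; 48 h exposure; 5 concentrations. Endpoints by linear interpolation between flanking doses. Not reached: highest tested concentration assigned. TGI denotes the concentration required for complete inhibition of growth.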

Tests used:
Experiment in all cases: NCI anticancer screen, dose series, 48 h
[1] = system: HCC-2998 colon
[2] = system: NCI-H23 lung
[3] = system: SF-295 CNS
[4] = system: RPMI-8226 leukemia
[5] = system: HOP-18 NSCLC
[6] = system: CAKI-1 renal
[7] = system: OVCAR-5 ovarian
[8] = system: COLO 205 colon
[9] = system: SK-MEL-5 melanoma
[10] = system: LOX IMVI melanoma
[11] = system: KM12 colon
[12] = system: SF-268 CNS
[13] = system: A498 renal
[14] = system: K-562 leukemia
[15] = system: EKVX NSCLC
[16] = system: OVCAR-3 ovarian
[17] = system: UACC-257 melanoma
[18] = system: SK-MEL-2 melanoma
[19] = system: NCI-H226 lung
[20] = system: DMS 273 small cell lung
[21] = system: CCRF-CEM leukemia
[22] = system: SK-MEL-28 melanoma
[23] = system: OVCAR-4 ovarian
[24] = system: TK-10 renal
[25] = system: 786-0 renal
[26] = system: M14 melanoma
[27] = system: SW-620 colon
[28] = system: SK-OV-3 ovarian
[29] = system: SNB-75 CNS
[30] = system: SF-539 CNS
[31] = system: NCI-H460 lung
[32] = system: IGROV1 ovarian
[33] = system: MOLT-4 leukemia
[34] = system: UO-31 renal
[35] = system: M19-MEL melanoma
[36] = system: A549 NSCLC
[37] = system: UACC-62 melanoma
[38] = system: DLD-1 colon
[39] = system: HCT-116 colon
[40] = system: HL-60(TB) leukemia
[41] = system: RXF-631 renal
[42] = system: HOP-62 NSCLC
[43] = system: HT29 colon
[44] = system: ACHN renal
[45] = system: SNB-78 CNS
[46] = system: SN12C renal
[47] = system: HOP-92 NSCLC
[48] = system: SNB-19 CNS
[49] = system: RXF 393 renal
[50] = system: DMS 114 small cell lung
[51] = system: HCT-15 colon
[52] = system: U251 CNS
[53] = system: MALME-3M melanoma
[54] = system: XF 498 CNS
[55] = system: KM20L2 colon
[56] = system: LXFL 529 NSCLC
[57] = system: OVCAR-8 ovarian
[58] = system: NCI-H522 lung

## CN(C)CCNC(=O)c1cccc2[nH]c(-c3ccccc3)nc12
[1]
  TGI: 29.1 µM
[2]
  TGI: 32.6 µM
[3]
  TGI: > 100 µM
[4]
  TGI: 91.5 µM
[5]
  TGI: 46.1 µM
[6]
  TGI: 92.9 µM
[7]
  TGI: 34.6 µM
[8]
  TGI: 24.7 µM
[9]
  TGI: 28.4 µM
[10]
  TGI: 29.7 µM
[11]
  TGI: 66.4 µM
[12]
  TGI: 46.3 µM
[13]
  TGI: 26.7 µM
[14]
  TGI: > 100 µM
[15]
  TGI: 53.5 µM
[16]
  TGI: 50.3 µM
[17]
  TGI: 30.6 µM
[18]
  TGI: 32.5 µM
[19]
  TGI: 39.5 µM
[20]
  TGI: 39.6 µM
[21]
  TGI: > 100 µM
[22]
  TGI: 32.5 µM
[23]
  TGI: 82.5 µM
[24]
  TGI: 59.9 µM
[25]
  TGI: > 100 µM
[26]
  TGI: 31.1 µM
[27]
  TGI: 45.8 µM
[28]
  TGI: 56.3 µM
[29]
  TGI: 75.3 µM
[30]
  TGI: 26.2 µM
[31]
  TGI: 39.8 µM
[32]
  TGI: 50.9 µM
[33]
  TGI: 59.6 µM
[34]
  TGI: 27.7 µM
[35]
  TGI: 33.5 µM
[36]
  TGI: 31.7 µM
[37]
  TGI: 32.6 µM
[38]
  TGI: 39.2 µM
[39]
  TGI: 27.5 µM
[40]
  TGI: 54.3 µM
[41]
  TGI: 57.9 µM
[42]
  TGI: 52.8 µM
[43]
  TGI: 57 µM
[44]
  TGI: 33.3 µM
[45]
  TGI: > 100 µM
[46]
  TGI: 43.7 µM
[47]
  TGI: 42.1 µM
[48]
  TGI: > 100 µM
[49]
  TGI: 33.2 µM
[50]
  TGI: 32.3 µM
[51]
  TGI: 34.5 µM
[52]
  TGI: 65.1 µM

## OCC12C3C4C1C1C2C3C41CO (configuration not stated)
[53]
  TGI: > 100 µM
[1]
  TGI: > 100 µM
[2]
  TGI: > 100 µM
[3]
  TGI: > 100 µM
[54]
  TGI: > 100 µM
[55]
  TGI: > 100 µM
[4]
  TGI: > 100 µM
[5]
  TGI: > 100 µM
[6]
  TGI: > 100 µM
[7]
  TGI: > 100 µM
[8]
  TGI: > 100 µM
[9]
  TGI: > 100 µM
[10]
  TGI: > 100 µM
[12]
  TGI: > 100 µM
[13]
  TGI: > 100 µM
[14]
  TGI: > 100 µM
[15]
  TGI: > 100 µM
[56]
  TGI: > 100 µM
[16]
  TGI: > 100 µM
[17]
  TGI: > 100 µM
[19]
  TGI: > 100 µM
[21]
  TGI: > 100 µM
[22]
  TGI: > 100 µM
[23]
  TGI: > 100 µM
[24]
  TGI: > 100 µM
[25]
  TGI: > 100 µM
[26]
  TGI: > 100 µM
[27]
  TGI: > 100 µM
[28]
  TGI: > 100 µM
[30]
  TGI: > 100 µM
[31]
  TGI: > 100 µM
[57]
  TGI: > 100 µM
[32]
  TGI: > 100 µM
[33]
  TGI: > 100 µM
[34]
  TGI: > 100 µM
[35]
  TGI: > 100 µM
[36]
  TGI: > 100 µM
[37]
  TGI: > 100 µM
[38]
  TGI: > 100 µM
[41]
  TGI: > 100 µM
[42]
  TGI: > 100 µM
[43]
  TGI: > 100 µM
[44]
  TGI: > 100 µM
[45]
  TGI: > 100 µM
[46]
  TGI: > 100 µM
[47]
  TGI: > 100 µM
[48]
  TGI: > 100 µM
[50]
  TGI: > 100 µM
[51]
  TGI: > 100 µM
[52]
  TGI: > 100 µM

## Nc1c(-c2ccc(Cl)cc2Cl)[n+]([O-])c2ccccc2[n+]1[O-]
[53]
  TGI: > 100 µM
[1]
  TGI: > 100 µM
[2]
  TGI: > 100 µM
[3]
  TGI: > 100 µM
[54]
  TGI: > 100 µM
[55]
  TGI: > 100 µM
[4]
  TGI: > 100 µM
[5]
  TGI: > 100 µM
[6]
  TGI: > 100 µM
[7]
  TGI: > 100 µM
[8]
  TGI: > 100 µM
[58]
  TGI: > 100 µM
[9]
  TGI: > 100 µM
[10]
  TGI: > 100 µM
[11]
  TGI: > 100 µM
[12]
  TGI: > 100 µM
[13]
  TGI: > 100 µM
[14]
  TGI: > 100 µM
[15]
  TGI: > 100 µM
[56]
  TGI: > 100 µM
[16]
  TGI: > 100 µM
[17]
  TGI: > 100 µM
[18]
  TGI: > 100 µM
[19]
  TGI: > 100 µM
[20]
  TGI: > 100 µM
[21]
  TGI: > 100 µM
[22]
  TGI: > 100 µM
[23]
  TGI: > 100 µM
[24]
  TGI: > 100 µM
[25]
  TGI: > 100 µM
[26]
  TGI: > 100 µM
[27]
  TGI: > 100 µM
[28]
  TGI: > 100 µM
[29]
  TGI: > 100 µM
[30]
  TGI: > 100 µM
[31]
  TGI: > 100 µM
[57]
  TGI: > 100 µM
[32]
  TGI: > 100 µM
[33]
  TGI: > 100 µM
[34]
  TGI: > 100 µM
[35]
  TGI: > 100 µM
[36]
  TGI: > 100 µM
[37]
  TGI: > 100 µM
[38]
  TGI: > 100 µM
[40]
  TGI: > 100 µM
[41]
  TGI: > 100 µM
[42]
  TGI: > 100 µM
[43]
  TGI: > 100 µM
[44]
  TGI: > 100 µM
[45]
  TGI: > 100 µM
[46]
  TGI: > 100 µM
[48]
  TGI: > 100 µM
[50]
  TGI: > 100 µM
[51]
  TGI: > 100 µM
[52]
  TGI: > 100 µM
